Activity calls are given as the source filed them. How the calls were made is not given here.
Tested on: CCRIS mutagenicity, Ames/micronucleus/aberration tests
Experiment: CCRIS mutagenicity studies
[1] = Test System: AMES SALMONELLA TYPHIMURIUM, Strain/Indicator: TA98, Metabolic Activation: NONE, Method: PREINCUBATION
[2] = Test System: AMES SALMONELLA TYPHIMURIUM, Strain/Indicator: TA100, Metabolic Activation: NONE, Method: PREINCUBATION

In the case of Oc1ccc2ccc3cc4ccccc4c4ccc1c2c34, the mutagenic call [1] is reported as “inactive; negative”, the mutagenic call (Test System: AMES SALMONELLA TYPHIMURIUM, Strain/Indicator: TA98, Metabolic Activation: RAT, LIVER, S-9, AROCLOR 1254, Method: PREINCUBATION) is reported as “active; positive” and the mutagenic call (Test System: AMES SALMONELLA TYPHIMURIUM, Strain/Indicator: TA98, Metabolic Activation: RAT, LUNG, S-9, Method: PREINCUBATION) is reported as “active; positive”. For the same compound, the mutagenic call (Test System: CHINESE HAMSTER V-79, Strain/Indicator: V-79/8-AZAGUANINE, Metabolic Activation: NONE, Method: STANDARD PLATE) was “active; positive” and the mutagenic call (Test System: CHINESE HAMSTER V-79, Strain/Indicator: V-79/OUABAIN, Metabolic Activation: NONE, Method: STANDARD PLATE) was “active; positive”.
In the case of c1cc2c3c(c4c(ccc5ccccc54)cc3c1)C1=C2O1, the mutagenic call (Test System: CHINESE HAMSTER V-79, Strain/Indicator: V-79/6-THIOGUANINE, Metabolic Activation: NONE, Method: SUSPENSION/PLATE) is reported as “active; positive”.
In the case of CCN(CCCl)CCCNc1c2ccccc2nc2c1ccc1ccccc12, the mutagenic call (Test System: AMES SALMONELLA TYPHIMURIUM, Strain/Indicator: TA98, Metabolic Activation: NONE, Method: STANDARD PLATE) is reported as “active; positive”, the mutagenic call (Test System: AMES SALMONELLA TYPHIMURIUM, Strain/Indicator: TA100, Metabolic Activation: NONE, Method: STANDARD PLATE) is reported as “active; positive” and the mutagenic call (Test System: AMES SALMONELLA TYPHIMURIUM, Strain/Indicator: TA1535, Metabolic Activation: NONE, Method: STANDARD PLATE) is reported as “inactive; negative”. The mutagenic call (Test System: AMES SALMONELLA TYPHIMURIUM, Strain/Indicator: TA1536, Metabolic Activation: NONE, Method: STANDARD PLATE) was “active; positive”, the mutagenic call (Test System: AMES SALMONELLA TYPHIMURIUM, Strain/Indicator: TA1537, Metabolic Activation: NONE, Method: STANDARD PLATE) was “active; positive” and the mutagenic call (Test System: AMES SALMONELLA TYPHIMURIUM, Strain/Indicator: TA1538, Metabolic Activation: NONE, Method: STANDARD PLATE) was “active; positive”. For the same compound, the mutagenic call (Test System: CHO/HGPRT, Strain/Indicator: CHO-K1-BH4, Metabolic Activation: NONE, Method: STANDARD PLATE) was “active; positive”.
With C=CC(C)(C)c1cc2cc3c(cc2oc1=O)OC(C(C)(C)O)C3 (stereo unspecified) the mutagenic call (Test System: AMES SALMONELLA TYPHIMURIUM, Strain/Indicator: TA92, Metabolic Activation: NONE, Method: SPOT TEST) was “inactive; negative”, the mutagenic call (Test System: AMES SALMONELLA TYPHIMURIUM, Strain/Indicator: TA92, Metabolic Activation: RAT, LIVER, S-9, AROCLOR 1254, Method: SPOT TEST) was “inactive; negative” and the mutagenic call (Test System: AMES SALMONELLA TYPHIMURIUM, Strain/Indicator: TA94, Metabolic Activation: NONE, Method: SPOT TEST) was “inactive; negative”. The mutagenic call (Test System: AMES SALMONELLA TYPHIMURIUM, Strain/Indicator: TA94, Metabolic Activation: RAT, LIVER, S-9, AROCLOR 1254, Method: SPOT TEST) was “inactive; negative”, the mutagenic call (Test System: AMES SALMONELLA TYPHIMURIUM, Strain/Indicator: TA97, Metabolic Activation: NONE, Method: SPOT TEST) was “active; positive” and the mutagenic call (Test System: AMES SALMONELLA TYPHIMURIUM, Strain/Indicator: TA97, Metabolic Activation: RAT, LIVER, S-9, AROCLOR 1254, Method: SPOT TEST) was “inactive; negative”. The mutagenic call (Test System: AMES SALMONELLA TYPHIMURIUM, Strain/Indicator: TA98, Metabolic Activation: NONE, Method: SPOT TEST) was “active; positive”, the mutagenic call (Test System: AMES SALMONELLA TYPHIMURIUM, Strain/Indicator: TA98, Metabolic Activation: RAT, LIVER, S-9, AROCLOR 1254, Method: SPOT TEST) was “inactive; negative” and the mutagenic call (Test System: AMES SALMONELLA TYPHIMURIUM, Strain/Indicator: TA100, Metabolic Activation: NONE, Method: SPOT TEST) was “active; positive”. The mutagenic call (Test System: AMES SALMONELLA TYPHIMURIUM, Strain/Indicator: TA100, Metabolic Activation: RAT, LIVER, S-9, AROCLOR 1254, Method: SPOT TEST) was “inactive; negative”, the mutagenic call (Test System: AMES SALMONELLA TYPHIMURIUM, Strain/Indicator: TA102, Metabolic Activation: NONE, Method: SPOT TEST) was “inactive; negative” and the mutagenic call (Test System: AMES SALMONELLA TYPHIMURIUM, Strain/Indicator: TA102, Metabolic Activation: RAT, LIVER, S-9, AROCLOR 1254, Method: SPOT TEST) was “inactive; negative”.
In the case of Cc1c2c3ccccc3nc-2n(C)c2c(C)cccc12, the mutagenic call (Test System: AMES SALMONELLA TYPHIMURIUM, Strain/Indicator: TA97, Metabolic Activation: RAT, LIVER, S-9, AROCLOR 1254, Method: STANDARD PLATE) is reported as “active; positive”.
For COP(=O)(OC)OC=C(Cl)Cl, the mutagenic call (End Point: IN VITRO CHROMOSOMAL ABERRATIONS, Test System: CHO CELLS, Metabolic Activation: NONE) was “active; positive”, the mutagenic call (End Point: IN VITRO CHROMOSOMAL ABERRATIONS, Test System: CHO CELLS, Metabolic Activation: RAT, LIVER, S-9, AROCLOR 1254) was “active; positive” and the mutagenic call (End Point: In vivo micronucleus, Test System: Erythrocytes, Species: Mouse, Strain/Sex: Males and females (Strain not identified by DPR), Route: Intraperitoneal) was “inactive; negative”. The mutagenic call (Test System: AMES SALMONELLA TYPHIMURIUM, Strain/Indicator: TA98, Metabolic Activation: HAMSTER, LIVER, S-9, AROCLOR 1254 (30%), Method: PREINCUBATION) was “inactive; negative”, the mutagenic call [1] was “inactive; negative” and the mutagenic call (Test System: AMES SALMONELLA TYPHIMURIUM, Strain/Indicator: TA98, Metabolic Activation: RAT, LIVER, S-9, AROCLOR 1254 (30%), Method: PREINCUBATION) was “inactive; negative”. For the same compound, the mutagenic call (Test System: AMES SALMONELLA TYPHIMURIUM, Strain/Indicator: TA100, Metabolic Activation: HAMSTER, LIVER, S-9, AROCLOR 1254 (30%), Method: PREINCUBATION) was “active; positive”, the mutagenic call [2] was “active; positive” and the mutagenic call (Test System: AMES SALMONELLA TYPHIMURIUM, Strain/Indicator: TA100, Metabolic Activation: RAT, LIVER, S-9, AROCLOR 1254 (30%), Method: PREINCUBATION) was “active; positive”. For the same compound, the mutagenic call (Test System: AMES SALMONELLA TYPHIMURIUM, Strain/Indicator: TA100, Metabolic Activation: S-9, Method: STANDARD PLATE) was “active; positive”, the mutagenic call (Test System: CHINESE HAMSTER OVARY, Strain/Indicator: CHO-K1-BH4 (HGPRT)/6-THIOGUANINE, Metabolic Activation: NONE) was “active; positive” and the mutagenic call (Test System: CHINESE HAMSTER OVARY, Strain/Indicator: CHO-K1-BH4 (HGPRT)/6-THIOGUANINE, Metabolic Activation: S-9) was “active; positive”. The mutagenic call (Test System: CHINESE HAMSTER V-79, Strain/Indicator: V-79/OUABAIN, Metabolic Activation: NONE) was “inactive; negative”, the mutagenic call (Test System: E. COLI, Strain/Indicator: WP2, Metabolic Activation: NONE, Method: FLUCTUATION) was “active; positive” and the mutagenic call (Test System: E. COLI, Strain/Indicator: WP2, Metabolic Activation: NONE, Method: PREINCUBATION) was “active; positive”. For the same compound, the mutagenic call (Test System: E. COLI, Strain/Indicator: WP2, Metabolic Activation: NONE, Method: STANDARD PLATE) was “active; positive”, the mutagenic call (Test System: E. COLI, Strain/Indicator: WP2, Metabolic Activation: RAT, LIVER, S-9, AROCLOR 1254, Method: STANDARD PLATE) was “active; positive” and the mutagenic call (Test System: E. COLI, Strain/Indicator: WP2 UVRA, Metabolic Activation: NONE, Method: FLUCTUATION) was “active; positive”. For the same compound, the mutagenic call (Test System: E. COLI, Strain/Indicator: WP2 UVRA, Metabolic Activation: NONE, Method: PREINCUBATION) was “active; positive”, the mutagenic call (Test System: E. COLI, Strain/Indicator: WP2 UVRA, Metabolic Activation: NONE, Method: STANDARD PLATE) was “active; positive” and the mutagenic call (Test System: MOUSE LYMPHOMA, Strain/Indicator: L5178Y (TK+/TK-), Metabolic Activation: NONE, Method: SUSPENSION/PLATE) was “active; positive”. The mutagenic call (Test System: Mouse lymphoma, Strain/Indicator: L5178Y (TK+/TK-), Metabolic Activation: None) was “active; positive”, the mutagenic call (Test System: Mouse lymphoma, Strain/Indicator: L5178Y (TK+/TK-), Metabolic Activation: Rat, Liver, S-9) was “active; positive” and the mutagenic call (Test System: UDS HUMAN CELLS, Strain/Indicator: EUE LINE/THY INCORP, Metabolic Activation: NONE, Method: AUTORADIOGRAPHY) was “active; positive”. For the same compound, the mutagenic call (Test System: UDS MOUSE FORESTOMACH EPITHELIUM, Strain/Indicator: THY INCORP, Metabolic Activation: NONE, Method: AUTORADIOGRAPHY) was “inactive; negative”, the mutagenic call (Test System: UDS RAT HEPATOCYTES, Strain/Indicator: BROMODEOXYURIDINE INCORP, Metabolic Activation: NONE, Method: FLOW CYTOMETRIC ANALYSIS) was “inactive; negative” and the mutagenic call (Test System: UDS RAT HEPATOCYTES, Strain/Indicator: THY INCORP, Metabolic Activation: NONE, Method: AUTORADIOGRAPHY) was “inactive; negative”.
O=[N+]([O-])c1ccccc1CO was tested, and the mutagenic call [1] was “inactive; negative”, the mutagenic call [2] was “inactive; negative” and the mutagenic call (Test System: AMES SALMONELLA TYPHIMURIUM, Strain/Indicator: TA100, Metabolic Activation: RAT, LIVER, S-9, AROCLOR 1254, Method: PREINCUBATION) was “inactive; negative”.

Reference: PubChem BioAssay AID1259407 (Chemical Carcinogenesis Research Information System (CCRIS), 2018)
